Assay results taken from patent US10330673B2, “Fluorescent chemical sensor for biological amines” (The Curators of the University of Missouri, priority 2013, dated 2019).

Key:
[1] = Fluorescence titration of sensor with norepinephrine; format: binding; conditions: Table 2, analyte norepinephrine; for Ka: pH 5.0, 37° C.
Protocol: (§1) Fluorescence spectra were recorded on a Shimadzu RF-5301 PC spectrofluorometer at 37° C. A 1 mg/mL stock solution of I-2 in DMSO was prepared. A stock solution of I-2 in buffer (1×10^−5 M, 25 mM HEPES, 50 mM Na2S2O3, pH=5.0) was prepared. Norepinephrine, dopamine, epinephrine, and glutamate stock solutions were prepared by separately dissolving the analytes at the concentration to be used in the titration with the buffered stock solution of I-2 (thus avoiding dilution of I-2 during the experiment). I-2 was titrated with aliquots of analyte solution. The sensor was excited at 488 nm with slit widths of 5 nm.
(§2) Fluorescence spectra were recorded on a Shimadzu RF-5301 PC spectrofluorometer at 37° C. A separate 1 mg/mL stock solution of each coumarin-3-aldehyde derivative in DMSO was prepared. An aqueous stock solution of each derivative (10 μM) in buffer (25 mM HEPES, 50 mM Na2S2O3, pH=5.0) was prepared. Norepinephrine, dopamine, glutamate, and epinephrine stock solutions were prepared by separately dissolving the solid analytes at the concentration to be used in the titration with the buffered stock solutions described above and thus, avoiding dilution of the sensor during the experiment. The benzene-based NS521 derivatives were excited at 488 nm. The thiophene-based derivatives were excited at 515 nm.

[2] = Fluorescence titration of sensor with glutamate; format: binding; conditions: for F.E. / Ka: Table 2, analyte glutamate; for Ka: pH 5.0, 37° C.
Protocol: as §1, §2

[3] = Fluorescence titration of sensor with dopamine; format: binding; conditions: Table 2, analyte dopamine; for Ka: pH 5.0, 37° C.
Protocol: as §1, §2

[4] = Solubility in buffer for spectroscopic studies; format: physicochemical; conditions: 25 mM HEPES, 50 mM Na2S2O3, pH 5.0; DMSO cosolvent required
Protocol: Steady-state fluorescence spectroscopic studies were performed using a Horiba Scientific Fluorolog-3 Model FL3C-111 spectrofluorometer and data was collected and analyzed using HJY FluorEssence™ 3.5.1.20 software package. UV-visible spectra were obtained on a Varian Cary 1E UV-visible spectrophotometer. A stock solution of each benzene- or thiophene-based coumarin-3-aldehyde derivative (1 μM) in buffer (25 mM HEPES, 50 mM Na2S2O3, pH=5.0) was prepared. Each solution contained 1% (v/v) DMSO as a cosolvent except as noted. The slit width was 2 nm for both excitation and emission. The bound benzene- and thiophene-coumarin-3-aldehyde derivatives contained 500 mM glutamate (pH=5.0).

[5] = 1.0 μM in water (pH 7); fluorescence standard; cited from earlier work
[6] = sensor of U.S. Pat. No. 7,977,120 B2; quenched by catechol group; cited from earlier work
[7] = tested on: norepinephrine-enriched chromaffin cells; assay: Live-cell confocal imaging with NS539, norepinephrine-enriched cells; format: cell-based, bovine; conditions: 10 μM
Protocol: (§3) Norepinephrine- and epinephrine-secreting chromaffin cells were isolated from bovine adrenal glands, separately incubated with NS539 (2b, 10 μM), and imaged using confocal fluorescence microscopy. The live cells were imaged at 458 nm which would excite any potential unbound sensor and at 514 nm which would excite the bound sensor. […] The ratio of the mean corrected total cell fluorescence intensity of norepinephrine- over epinephrine-enriched cells was approximately 27-fold (FIG. 19G).
(§4) Chromaffin cells were prepared as previously described. Approximately 3 mL of each culture media containing suspended epinephrine- and norepinephrine-enriched cells was centrifuged at 1,000 rpm for 5 min. The pellets were suspended in 2 mL Dulbecco's Modified Eagle Medium (DMEM). NS539 was added (10 μM final concentration) and each cell suspension containing sensor incubated at 37° C. for 30 min. The cells were centrifuged, the supernatant removed, and washed twice with PBS buffer. Next, the cells were taken up into 6 mL standard cell bath solution and plated onto No. 1.5 γ-irradiated poly-D-lysine coated 35 mm glass-bottom dishes (MatTek Corporation). The cells incubated on the dishes 37° C. with 5% CO2 for 1 hr prior to imaging to promote adhesion. Live cell imaging studies were performed using a Zeiss LSM 510 META laser scanning confocal microscope (Carl Zeiss Microscopy, LLC) equipped with a C-Apochromat 63x/1.2 water immersion objective lens (Carl Zeiss Microscopy, LLC). The excitation wavelengths were 458 nm and 514 nm (pixel time: 6.4 μs, detector gain: 845, amplifier gain: 1.00, amplifier offset: −0.05, pinhole: 328 μm). Image acquisition was performed using Zeiss AIM 4.2 software package (Carl Zeiss Microscopy, LLC). To compare the fluorescence intensities of the norepinephrine- vs. the epinephrine-enriched cells, the mean corrected total cell fluorescence intensities were obtained using ImageJ (National Institute of Health).

[8] = tested on: epinephrine-enriched chromaffin cells; assay: Live-cell confocal imaging with NS539, epinephrine-enriched cells; format: cell-based, bovine; conditions: 10 μM
Protocol: as §3, §4

[9] = benzene-based compounds I, excited at 488 nm
[10] = thiophene-based compounds II, excited at 515 nm
[11] = excitation at 514 nm (bound sensor)
[12] = ± standard deviation (n=6), 535-590 nm bandpass filter

| Compound | F.E. [1, 9] | Ka [1, 9] [M⁻¹] | F.E. [2, 9] | Ka [2, 9] [M⁻¹] | F.E. [3, 9] | Ka [3, 9] [M⁻¹] | also measured |
| --- | --- | --- | --- | --- | --- | --- | --- |
| CCN(CC)c1ccc2c(-c3ccc(SC)cc3)c(C=O)c(=O)oc2c1 [Compound I-11] | 6.46 | 68.82 | 9.76 | 8.40 | 3.10 | 87.11 | – |
| CCOC(=O)c1ccc(-c2c(C=O)c(=O)oc3cc(N(CC)CC)ccc23)cc1 [Compound I-7] | 1.79 | 81.50 | 4.68 | 6.95 | 1.13 | 107.45 | solubility in buffer [4]: solubility issues |
| CCN(CC)c1ccc2c(-c3cc(C)cs3)c(C=O)c(=O)oc2c1 [II-3] | – | – | – | – | – | – | F.E. [1, 10]: 38.35; Ka [1, 10]: 63.65 M⁻¹; F.E. [2, 10]: 51.15; Ka [2, 10]: 7.40 M⁻¹; F.E. [3, 10]: 23.41; Ka [3, 10]: 51.10 M⁻¹ |
| CCN(CC)c1ccc2c(-c3ccc(OC)c(C)c3)c(C=O)c(=O)oc2c1 [Compound I-6] | 3.89 | 135.98 | 6.36 | 10.25 | 2.41 | 192.05 | – |
| CCN(CC)c1ccc2c(-c3ccccc3C(=O)O)c3ccc(=[N+](CC)CC)cc-3oc2c1.[Cl-] [rhodamine B] | – | – | – | – | – | – | absolute Φfl [5]: 0.31 |
| CCN(CC)c1ccc2c(-c3cccc4ccccc34)c(C=O)c(=O)oc2c1 [Compound I-10] | 4.30 | 103.56 | 6.81 | 10.08 | 2.86 | 170.10 | – |
| CCN(CC)c1ccc2c(CCCCCN(C)Cc3ccccc3B(O)O)c(C=O)c(=O)oc2c1 ['120 sensor] | – | – | – | – | – | – | mode of fluorescence response [6]: turn-off mode |
| CCN(CC)c1ccc2c(-c3ccc(OC)c(OC)c3)c(C=O)c(=O)oc2c1 [Compound I-3] | 4.11 | 107.17 | 6.56 | 10.21 | 2.69 | 177.46 | – |
| CCN(CC)c1ccc2c(-c3cccs3)c(C=O)c(=O)oc2c1 [II-1] | – | – | – | – | – | – | ratio of mean corrected total cell fluorescence intensity of norepinephrine- over epinephrine-enriched cells [7]: approximately 27 fold; cell fluorescence, confocal microscopy [7, 11]: strong punctate fluorescence; mean corrected total cell fluorescence intensity [7, 12]: 51.0±2.6; cell fluorescence, confocal microscopy ([7]; λex = 458 nm (unbound sensor)): no measurable fluorescence response; F.E. [1, 10]: 47.95; Ka [1, 10]: 65.15 M⁻¹; F.E. [2, 10]: 57.17; Ka [2, 10]: 7.32 M⁻¹; cell fluorescence, confocal microscopy ([8]; excitation at 458 nm (unbound sensor)): no fluorescence; cell fluorescence, confocal microscopy [8, 11]: marginal fluorescence response; mean corrected total cell fluorescence intensity [8, 12]: 1.86±0.98; F.E. [3, 10]: 25.42; Ka [3, 10]: 43.55 M⁻¹ |
| CCN(CC)c1ccc2c(-c3cc4ccccc4s3)c(C=O)c(=O)oc2c1 [II-5] | – | – | – | – | – | – | F.E. [1, 10]: 16.62; Ka [1, 10]: 49.65 M⁻¹; F.E. [2, 10]: 29.65; Ka [2, 10]: 5.25 M⁻¹; F.E. [3, 10]: 9.53; Ka [3, 10]: 49.26 M⁻¹ |
| CCN(CC)c1ccc2c(-c3ccccc3)c(C=O)c(=O)oc2c1 [Compound I-1] | 6.62 | 68.68 | 10.45 | 9.43 | 3.23 | 68.07 | – |
| CCN(CC)c1ccc2c(-c3cc(OC)c(OC)c(OC)c3)c(C=O)c(=O)oc2c1 [Compound I-4] | 2.56 | 159.08 | 5.57 | 10.25 | 1.62 | 205.13 | selectivity of fluorescent response for glutamate over dopamine and norepinephrine ([2]; series 1 sensors, in words): best glutamate-selective sensor |
| CCN(CC)c1ccc2c(-c3cccc(C)c3)c(C=O)c(=O)oc2c1 [Compound I-5] | 6.59 | 68.40 | 9.97 | 9.17 | 3.17 | 74.13 | – |
| CCN(CC)c1ccc2c(-c3ccc(OC)c(F)c3)c(C=O)c(=O)oc2c1 [Compound I-8] | 6.36 | 70.18 | 9.31 | 8.96 | 3.06 | 92.94 | – |
| CCN(CC)c1ccc2c(-c3ccc(-c4ccccc4)cc3)c(C=O)c(=O)oc2c1 [Compound I-9] | 2.57 | 148.79 | 6.22 | 13.84 | 1.62 | 203.29 | solubility in buffer [4]: solubility issues |
| CCN(CC)c1ccc2c(-c3ccc(C)s3)c(C=O)c(=O)oc2c1 [II-2] | – | – | – | – | – | – | F.E. [1, 10]: 32.35; Ka [1, 10]: 58.72 M⁻¹; F.E. [2, 10]: 47.67; Ka [2, 10]: 6.11 M⁻¹; F.E. [3, 10]: 22.18; Ka [3, 10]: 54.61 M⁻¹ |
| CCN(CC)c1ccc2c(-c3ccc(Cl)s3)c(C=O)c(=O)oc2c1 [II-4] | – | – | – | – | – | – | F.E. [1, 10]: 20.78; Ka [1, 10]: 69.25 M⁻¹; F.E. [2, 10]: 33.96; Ka [2, 10]: 5.90 M⁻¹; F.E. [3, 10]: 12.39; Ka [3, 10]: 83.96 M⁻¹ |
